Assay results reported in ChEMBL document CHEMBL3779870, “Differential metabolism of 3FDT and docetaxel in RLMs, rats, and HLMs” (Eur J Med Chem, 2016).

Experiments:
[1] = Drug metabolism in Sprague-Dawley rat feces assessed as metabolite M2 formation at 40 mg/kg, iv administered as single dose after 24 hrs by HPLC-TIC chromatography; format: ADME, organism-based; conditions: in vivo
[2] = Drug metabolism in Sprague-Dawley rat feces assessed as metabolite M3 formation at 40 mg/kg, iv administered as single dose after 24 hrs by HPLC-TIC chromatography; format: ADME, organism-based; conditions: in vivo
[3] = Drug metabolism in Sprague-Dawley rat feces assessed as metabolite M6 formation at 40 mg/kg, iv administered as single dose after 24 hrs by HPLC-TIC chromatography; format: ADME, organism-based; conditions: in vivo
[4] = Drug metabolism in Sprague-Dawley rat feces assessed as metabolite M7 formation at 40 mg/kg, iv administered as single dose after 24 hrs by HPLC-TIC chromatography; format: ADME, organism-based; conditions: in vivo
[5] = Drug metabolism in Sprague-Dawley rat feces assessed as metabolite M8 formation at 40 mg/kg, iv administered as single dose after 24 hrs by HPLC-TIC chromatography; format: ADME, organism-based; conditions: in vivo
Plasma [6] = assay: Drug metabolism in Sprague-Dawley rat plasma assessed as metabolite M1 formation at 40 mg/kg, iv administered as single dose after 4 to 24 hrs by HPLC-TIC chromatography; format: ADME, organism-based; conditions: in vivo
Plasma [7] = assay: Drug metabolism in Sprague-Dawley rat plasma assessed as metabolite M2 formation at 40 mg/kg, iv administered as single dose after 4 to 24 hrs by HPLC-TIC chromatography; format: ADME, organism-based; conditions: in vivo
Plasma [8] = assay: Drug metabolism in Sprague-Dawley rat plasma assessed as metabolite M3 formation at 40 mg/kg, iv administered as single dose after 4 to 24 hrs by HPLC-TIC chromatography; format: ADME, organism-based; conditions: in vivo
[9] = Drug metabolism in Sprague-Dawley rat urine assessed as metabolite M1 formation at 40 mg/kg, iv administered as single dose after 24 hrs by HPLC-TIC chromatography; format: ADME, organism-based; conditions: in vivo
[10] = Drug metabolism in Sprague-Dawley rat urine assessed as metabolite M2 formation at 40 mg/kg, iv administered as single dose after 24 hrs by HPLC-TIC chromatography; format: ADME, organism-based; conditions: in vivo
[11] = Drug metabolism in Sprague-Dawley rat urine assessed as metabolite M3 formation at 40 mg/kg, iv administered as single dose after 24 hrs by HPLC-TIC chromatography; format: ADME, organism-based; conditions: in vivo
Cytochrome P450 2A6 = target: T1, Cytochrome P450 2A6 (Homo sapiens, UniProt P11509); assay: Drug metabolism assessed as recombinant human CYP2A6 mediated metabolite formation at 10 uM preincubated for 5 mins followed by addition of NADPH measured after 120 mins by HPLC-TIC chromatography; format: ADME; conditions: recombinant enzyme, 2 h
T1 sequence (P11509 whole entry): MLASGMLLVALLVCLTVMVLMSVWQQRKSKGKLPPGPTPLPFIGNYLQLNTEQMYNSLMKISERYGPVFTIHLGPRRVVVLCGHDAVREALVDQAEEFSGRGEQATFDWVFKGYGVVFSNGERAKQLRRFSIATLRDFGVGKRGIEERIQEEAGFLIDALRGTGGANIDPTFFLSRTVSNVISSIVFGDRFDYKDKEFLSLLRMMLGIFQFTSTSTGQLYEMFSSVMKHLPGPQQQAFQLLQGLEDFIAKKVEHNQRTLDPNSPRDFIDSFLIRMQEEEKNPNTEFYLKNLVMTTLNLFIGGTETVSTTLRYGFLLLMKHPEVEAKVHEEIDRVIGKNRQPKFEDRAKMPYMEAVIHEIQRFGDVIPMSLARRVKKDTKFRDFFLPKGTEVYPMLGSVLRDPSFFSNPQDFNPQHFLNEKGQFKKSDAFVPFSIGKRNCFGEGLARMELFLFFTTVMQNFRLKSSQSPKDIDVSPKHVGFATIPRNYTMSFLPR

[12] = Cytotoxicity against human SKOV3 cells; format: functional, cell-based; conditions: SK-OV-3
[13] = AUC (0 to t) in Sprague-Dawley rat; format: ADME, organism-based; conditions: in vivo
[14] = AUC (0 to infinity) in Sprague-Dawley rat; format: ADME, organism-based; set-up: time infinity; conditions: in vivo
[15] = Total clearance in Sprague-Dawley rat plasma; format: ADME, organism-based
[16] = Apparent volume of distribution in Sprague-Dawley rat; format: ADME, organism-based; conditions: in vivo, read-out: Vd(app)
Plasma [17] = assay: Drug metabolism in Sprague-Dawley rat plasma assessed as metabolite M4 formation at 40 mg/kg, iv administered as single dose after 4 to 24 hrs by HPLC-TIC chromatography; format: ADME, organism-based; conditions: in vivo
Plasma [18] = assay: Drug metabolism in Sprague-Dawley rat plasma assessed as 7-epi-3FDT formation at 40 mg/kg, iv administered as single dose after 4 to 24 hrs by HPLC-TIC chromatography; format: ADME, organism-based; conditions: in vivo
[19] = Drug metabolism in Sprague-Dawley rat urine assessed as metabolite M4 formation at 40 mg/kg, iv administered as single dose after 24 hrs by HPLC-TIC chromatography; format: ADME, organism-based; conditions: in vivo
[20] = Drug metabolism in Sprague-Dawley rat urine assessed as 7-epi-3FDT formation at 40 mg/kg, iv administered as single dose after 24 hrs by HPLC-TIC chromatography; format: ADME, organism-based; conditions: in vivo
[21] = Drug metabolism in Sprague-Dawley rat feces assessed as metabolite M4 formation at 40 mg/kg, iv administered as single dose after 24 hrs by HPLC-TIC chromatography; format: ADME, organism-based; conditions: in vivo
[22] = Drug metabolism in Sprague-Dawley rat feces assessed as 7-epi-3FDT formation at 40 mg/kg, iv administered as single dose after 24 hrs by HPLC-TIC chromatography; format: ADME, organism-based; conditions: in vivo
Cytochrome P450 3A4 [23] = target: T2, Cytochrome P450 3A4 (Homo sapiens, UniProt P08684); assay: Drug metabolism assessed as recombinant human CYP3A4 mediated metabolite M1 formation at 10 uM preincubated for 5 mins followed by addition of NADPH measured after 120 mins by HPLC-TIC chromatography; format: ADME; conditions: recombinant enzyme, 2 h
T2 sequence (P08684 whole entry): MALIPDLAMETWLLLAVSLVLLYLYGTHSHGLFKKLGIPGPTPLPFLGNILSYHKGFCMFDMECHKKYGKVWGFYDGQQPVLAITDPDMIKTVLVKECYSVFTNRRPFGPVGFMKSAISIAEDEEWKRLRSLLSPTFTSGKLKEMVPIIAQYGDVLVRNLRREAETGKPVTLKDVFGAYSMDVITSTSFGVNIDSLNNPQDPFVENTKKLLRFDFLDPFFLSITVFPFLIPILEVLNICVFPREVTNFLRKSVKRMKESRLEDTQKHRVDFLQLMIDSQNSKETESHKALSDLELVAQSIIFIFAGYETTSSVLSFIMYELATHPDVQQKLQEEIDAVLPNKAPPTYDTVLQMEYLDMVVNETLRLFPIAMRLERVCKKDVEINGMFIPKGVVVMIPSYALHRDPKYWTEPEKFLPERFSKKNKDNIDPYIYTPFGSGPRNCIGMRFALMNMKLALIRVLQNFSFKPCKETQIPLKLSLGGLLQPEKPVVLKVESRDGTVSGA

Cytochrome P450 3A4 [24] = target: T2, Cytochrome P450 3A4; assay: Drug metabolism assessed as recombinant human CYP3A4 mediated metabolite M2 formation at 10 uM preincubated for 5 mins followed by addition of NADPH measured after 120 mins by HPLC-TIC chromatography; format: ADME; conditions: recombinant enzyme, 2 h
Cytochrome P450 3A4 [25] = target: T2, Cytochrome P450 3A4; assay: Drug metabolism assessed as recombinant human CYP3A4 mediated metabolite M3 formation at 10 uM preincubated for 5 mins followed by addition of NADPH measured after 120 mins by HPLC-TIC chromatography; format: ADME; conditions: recombinant enzyme, 2 h
Cytochrome P450 3A5 [26] = target: T3, Cytochrome P450 3A5 (Homo sapiens, UniProt P20815); assay: Drug metabolism assessed as recombinant human CYP3A5 mediated metabolite M1 formation at 10 uM preincubated for 5 mins followed by addition of NADPH measured after 120 mins by HPLC-TIC chromatography; format: ADME; conditions: recombinant enzyme, 2 h
T3 sequence (P20815 whole entry): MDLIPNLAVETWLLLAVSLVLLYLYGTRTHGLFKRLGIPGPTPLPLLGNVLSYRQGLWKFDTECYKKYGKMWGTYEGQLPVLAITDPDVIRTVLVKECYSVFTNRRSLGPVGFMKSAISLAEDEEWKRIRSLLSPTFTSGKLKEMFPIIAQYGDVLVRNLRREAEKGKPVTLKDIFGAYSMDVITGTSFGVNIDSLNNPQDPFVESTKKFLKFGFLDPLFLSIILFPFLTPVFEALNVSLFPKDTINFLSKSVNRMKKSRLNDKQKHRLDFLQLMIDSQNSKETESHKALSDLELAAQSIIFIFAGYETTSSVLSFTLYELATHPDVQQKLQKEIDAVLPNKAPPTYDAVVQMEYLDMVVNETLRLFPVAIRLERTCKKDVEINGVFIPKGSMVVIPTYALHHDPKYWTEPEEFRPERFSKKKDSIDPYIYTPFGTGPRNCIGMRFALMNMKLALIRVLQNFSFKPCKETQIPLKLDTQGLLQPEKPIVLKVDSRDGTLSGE

Cytochrome P450 3A5 [27] = target: T3, Cytochrome P450 3A5; assay: Drug metabolism assessed as recombinant human CYP3A5 mediated metabolite M2 formation at 10 uM preincubated for 5 mins followed by addition of NADPH measured after 120 mins by HPLC-TIC chromatography; format: ADME; conditions: recombinant enzyme, 2 h
Cytochrome P450 2E1 = Cytochrome P450 2E1 (Homo sapiens, UniProt P05181); assay: Drug metabolism assessed as recombinant human CYP2E1 mediated metabolite M4 formation at 10 uM preincubated for 5 mins followed by addition of NADPH measured after 120 mins by HPLC-TIC chromatography; format: ADME; conditions: recombinant enzyme, 2 h
Chain of Cytochrome P450 2E1 (P05181 whole entry): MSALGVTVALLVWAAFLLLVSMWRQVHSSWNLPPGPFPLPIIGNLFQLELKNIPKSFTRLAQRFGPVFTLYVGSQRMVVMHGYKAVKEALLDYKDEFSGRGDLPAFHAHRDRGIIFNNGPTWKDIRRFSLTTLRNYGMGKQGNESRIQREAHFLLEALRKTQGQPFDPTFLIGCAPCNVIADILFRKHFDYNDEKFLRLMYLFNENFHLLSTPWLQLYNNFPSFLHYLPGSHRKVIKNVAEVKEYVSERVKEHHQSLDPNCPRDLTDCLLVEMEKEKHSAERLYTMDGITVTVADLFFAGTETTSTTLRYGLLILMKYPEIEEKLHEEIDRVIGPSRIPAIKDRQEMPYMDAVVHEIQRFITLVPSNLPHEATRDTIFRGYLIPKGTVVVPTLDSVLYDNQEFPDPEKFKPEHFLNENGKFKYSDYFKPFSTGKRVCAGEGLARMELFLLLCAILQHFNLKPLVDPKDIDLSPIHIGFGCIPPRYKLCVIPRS

Cytochrome P450 1A2 = target: T4, Cytochrome P450 1A2 (Homo sapiens, UniProt P05177); assay: Drug metabolism assessed as recombinant human CYP1A2 mediated metabolite formation at 10 uM preincubated for 5 mins followed by addition of NADPH measured after 120 mins by HPLC-TIC chromatography; format: ADME; conditions: recombinant enzyme, 2 h
T4 sequence (P05177 whole entry): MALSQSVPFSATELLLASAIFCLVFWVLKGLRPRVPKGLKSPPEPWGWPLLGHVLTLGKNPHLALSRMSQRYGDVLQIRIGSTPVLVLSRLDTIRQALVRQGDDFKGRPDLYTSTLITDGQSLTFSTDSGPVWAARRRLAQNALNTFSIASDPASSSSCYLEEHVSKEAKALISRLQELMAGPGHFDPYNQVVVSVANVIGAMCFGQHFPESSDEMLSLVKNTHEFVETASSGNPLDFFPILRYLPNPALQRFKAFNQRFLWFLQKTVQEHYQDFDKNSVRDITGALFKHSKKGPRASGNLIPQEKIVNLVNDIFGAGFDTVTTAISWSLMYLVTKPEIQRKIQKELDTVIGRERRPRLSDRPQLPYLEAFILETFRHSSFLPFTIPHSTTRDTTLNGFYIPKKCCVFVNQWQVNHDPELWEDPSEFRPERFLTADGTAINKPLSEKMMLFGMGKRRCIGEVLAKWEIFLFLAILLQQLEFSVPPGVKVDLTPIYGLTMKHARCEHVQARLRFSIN

Cytochrome P450 2B6 = target: T5, Cytochrome P450 2B6 (Homo sapiens, UniProt P20813); assay: Drug metabolism assessed as recombinant human CYP2B6 mediated metabolite formation at 10 uM preincubated for 5 mins followed by addition of NADPH measured after 120 mins by HPLC-TIC chromatography; format: ADME; conditions: recombinant enzyme, 2 h
T5 sequence (P20813 whole entry): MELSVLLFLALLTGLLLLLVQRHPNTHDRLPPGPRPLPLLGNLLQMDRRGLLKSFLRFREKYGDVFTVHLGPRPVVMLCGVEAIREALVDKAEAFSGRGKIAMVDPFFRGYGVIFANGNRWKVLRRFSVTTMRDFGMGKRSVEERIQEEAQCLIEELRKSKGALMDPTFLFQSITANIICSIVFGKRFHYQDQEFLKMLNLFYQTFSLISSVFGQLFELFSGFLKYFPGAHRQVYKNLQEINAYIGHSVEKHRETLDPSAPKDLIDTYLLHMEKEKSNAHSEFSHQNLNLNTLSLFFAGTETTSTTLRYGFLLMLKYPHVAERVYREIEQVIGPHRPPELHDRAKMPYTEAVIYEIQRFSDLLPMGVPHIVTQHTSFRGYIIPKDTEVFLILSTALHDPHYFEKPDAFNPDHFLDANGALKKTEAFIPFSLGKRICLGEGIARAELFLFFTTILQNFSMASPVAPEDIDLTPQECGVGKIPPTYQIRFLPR

Cytochrome P450 2C8 = target: T6, Cytochrome P450 2C8 (Homo sapiens, UniProt P10632); assay: Drug metabolism assessed as recombinant human CYP2C8 mediated metabolite formation at 10 uM preincubated for 5 mins followed by addition of NADPH measured after 120 mins by HPLC-TIC chromatography; format: ADME; conditions: recombinant enzyme, 2 h
T6 sequence (P10632 whole entry): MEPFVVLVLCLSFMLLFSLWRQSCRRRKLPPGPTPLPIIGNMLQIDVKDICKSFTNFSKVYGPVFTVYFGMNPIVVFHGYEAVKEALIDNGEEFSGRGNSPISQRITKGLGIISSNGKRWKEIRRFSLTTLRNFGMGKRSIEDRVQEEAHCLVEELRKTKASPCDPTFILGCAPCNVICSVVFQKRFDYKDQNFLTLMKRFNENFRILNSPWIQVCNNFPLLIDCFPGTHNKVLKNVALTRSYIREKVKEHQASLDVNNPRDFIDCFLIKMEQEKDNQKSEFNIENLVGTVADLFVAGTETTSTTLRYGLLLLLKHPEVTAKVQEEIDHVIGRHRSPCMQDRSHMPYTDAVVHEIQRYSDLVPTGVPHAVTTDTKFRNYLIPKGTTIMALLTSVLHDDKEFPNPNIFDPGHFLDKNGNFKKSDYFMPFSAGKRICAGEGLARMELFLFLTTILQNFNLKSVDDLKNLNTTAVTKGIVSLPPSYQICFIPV

Cytochrome P450 2C9 = Cytochrome P450 2C9 (Homo sapiens, UniProt P11712); assay: Drug metabolism assessed as recombinant human CYP2C9 mediated metabolite formation at 10 uM preincubated for 5 mins followed by addition of NADPH measured after 120 mins by HPLC-TIC chromatography; format: ADME; conditions: recombinant enzyme, 2 h
Chain of Cytochrome P450 2C9 (P11712 whole entry): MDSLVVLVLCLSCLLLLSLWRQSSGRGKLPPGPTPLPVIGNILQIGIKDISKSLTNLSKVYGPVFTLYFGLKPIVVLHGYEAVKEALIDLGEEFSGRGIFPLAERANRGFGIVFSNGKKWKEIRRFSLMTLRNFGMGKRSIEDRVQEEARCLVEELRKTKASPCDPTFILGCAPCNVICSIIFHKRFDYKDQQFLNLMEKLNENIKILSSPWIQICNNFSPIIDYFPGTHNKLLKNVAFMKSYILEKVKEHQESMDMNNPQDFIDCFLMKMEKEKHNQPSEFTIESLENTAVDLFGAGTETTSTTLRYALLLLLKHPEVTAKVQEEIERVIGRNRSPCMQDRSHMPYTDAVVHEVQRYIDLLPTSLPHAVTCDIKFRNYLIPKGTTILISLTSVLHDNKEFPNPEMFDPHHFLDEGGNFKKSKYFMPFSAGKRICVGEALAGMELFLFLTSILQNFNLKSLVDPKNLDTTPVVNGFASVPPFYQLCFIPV

Cytochrome P450 2C19 = Cytochrome P450 2C19 (Homo sapiens, UniProt P33261); assay: Drug metabolism assessed as recombinant human CYP2C19 mediated metabolite formation at 10 uM preincubated for 5 mins followed by addition of NADPH measured after 120 mins by HPLC-TIC chromatography; format: ADME; conditions: recombinant enzyme, 2 h
Chain of Cytochrome P450 2C19 (P33261 whole entry): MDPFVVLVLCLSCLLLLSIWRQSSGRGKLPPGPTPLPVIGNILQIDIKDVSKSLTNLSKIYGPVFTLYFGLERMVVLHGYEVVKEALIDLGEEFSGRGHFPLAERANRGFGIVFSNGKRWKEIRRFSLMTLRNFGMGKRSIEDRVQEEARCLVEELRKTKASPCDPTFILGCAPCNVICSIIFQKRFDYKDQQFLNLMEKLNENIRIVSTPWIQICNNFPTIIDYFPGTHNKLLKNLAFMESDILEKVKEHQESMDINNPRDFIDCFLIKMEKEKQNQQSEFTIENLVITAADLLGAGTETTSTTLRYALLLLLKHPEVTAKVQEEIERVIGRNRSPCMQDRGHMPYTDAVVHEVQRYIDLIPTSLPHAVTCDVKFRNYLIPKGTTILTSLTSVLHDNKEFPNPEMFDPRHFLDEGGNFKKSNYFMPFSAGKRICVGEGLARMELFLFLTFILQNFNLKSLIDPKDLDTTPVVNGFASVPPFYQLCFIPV

Cytochrome P450 2D6 = Cytochrome P450 2D6 (Homo sapiens, UniProt P10635); assay: Drug metabolism assessed as recombinant human CYP2D6 mediated metabolite formation at 10 uM preincubated for 5 mins followed by addition of NADPH measured after 120 mins by HPLC-TIC chromatography; format: ADME; conditions: recombinant enzyme, 2 h
Chain of Cytochrome P450 2D6 (P10635 whole entry): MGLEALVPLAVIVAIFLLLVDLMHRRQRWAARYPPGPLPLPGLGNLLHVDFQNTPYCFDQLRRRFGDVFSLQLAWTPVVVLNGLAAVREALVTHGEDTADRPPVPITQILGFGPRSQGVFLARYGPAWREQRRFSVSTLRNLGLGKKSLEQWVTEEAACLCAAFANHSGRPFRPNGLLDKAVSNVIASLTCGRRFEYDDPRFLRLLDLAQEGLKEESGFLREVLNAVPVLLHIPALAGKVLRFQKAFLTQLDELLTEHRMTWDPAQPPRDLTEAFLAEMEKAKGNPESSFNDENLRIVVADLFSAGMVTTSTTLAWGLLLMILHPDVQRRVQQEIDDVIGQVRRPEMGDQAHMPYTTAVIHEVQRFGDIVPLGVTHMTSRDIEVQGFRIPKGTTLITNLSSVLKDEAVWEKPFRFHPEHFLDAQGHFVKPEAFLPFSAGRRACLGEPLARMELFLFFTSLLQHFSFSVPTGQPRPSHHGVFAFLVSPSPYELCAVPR

CC(=O)O[C@@]12CO[C@@H]1C[C@H](O)[C@@]1(C)C(=O)[C@H](O)C3=C(C)[C@@H](OC(=O)[C@H](O)[C@@H](NC(=O)OC(C)(C)C(F)(F)F)c4ccccc4)C[C@@](O)([C@@H](OC(=O)c4ccccc4)C12)C3(C)C (stereo not given in full)
metabolite_detected: Drug metabolism [1] | Drug metabolism [2] | Drug metabolism [3] | Drug metabolism [4] | Drug metabolism [5] | Drug metabolism (Plasma [17]) | Drug metabolism (Plasma [18]) | Drug metabolism [19] | Drug metabolism [20] | Drug metabolism [21] | Drug metabolism [22] | Drug metabolism (Cytochrome P450 3A4 [23]) | Drug metabolism (Cytochrome P450 3A4 [24]) | Drug metabolism (Cytochrome P450 3A4 [25]) | Drug metabolism (Cytochrome P450 3A5 [26]) | Drug metabolism (Cytochrome P450 3A5 [27]) | Drug metabolism (Cytochrome P450 2E1)
18.1 L/kg: Vd [16]
21 mL/min/kg: clearance [15]
0.01 nM: IC50 [12]
3860 ng·h/mL: AUC(0-t) [13]
3960 ng·h/mL: AUC(0-inf) [14]
metabolite_notdetected: Drug metabolism (Plasma [6]) | Drug metabolism (Plasma [7]) | Drug metabolism (Plasma [8]) | Drug metabolism [9] | Drug metabolism [10] | Drug metabolism [11] | Drug metabolism (Cytochrome P450 2A6) | Drug metabolism (Cytochrome P450 1A2) | Drug metabolism (Cytochrome P450 2B6) | Drug metabolism (Cytochrome P450 2C8) | Drug metabolism (Cytochrome P450 2C9) | Drug metabolism (Cytochrome P450 2C19) | Drug metabolism (Cytochrome P450 2D6)
